Columns and labels:
[1] = tested on: L. infantum promastigotes; test: In vitro iRFP L. infantum promastigotes viability assay (infrared fluorescence); type: cell-based, Leishmania infantum; conditions: iRFP-L. infantum promastigotes, 72 h, 26 °C, fluorescence at 708 nm; average of three experiments by duplicate; read-out: EC50 L. infantum promastigotes
Protocol: (§1) Two series of aromathecins (Table 1) have been tested against both stages of L. infantum, free-living promastigotes and intracellular amastigotes harbored in mouse splenic cells. Experiments were carried out using a genetically modified L. infantum strain that constitutively produces the iRFP protein. This makes it possible to evaluate the viability of parasites measuring the fluorescence emitted at 708 nm.
The antiparasitic activity of the compounds was assessed on the genetically modified iRFP L. infantum strain, which constitutively produces the infrared fluorescent protein (iRFP) when cells are viable. iRFP L. infantum was grown at 26 °C in M-199 medium (Gibco) supplemented with 25 mM HEPES pH 7.2, 0.1 mM adenine, 0.0005% (w/v) hemin, 2 μg/mL biopterin, 0.0001% (w/v) biotin, 10% (v/v) heat-inactivated fetal bovine serum (FBS) and an antibiotic cocktail comprising 50 U/mL penicillin and 50 μg/mL streptomycin.
(§2) The viability of cultured parasites in the presence of different concentrations of aromathecins was determined by measuring the reduction of infrared fluorescence emitted by free-living promastigotes/amastigotes with respect to negative controls of each form of the parasite treated with DMSO (up to 0.1% final concentration) as a vehicle. […] After 72 h incubation at 26 °C, the infrared fluorescence emitted at 708 nm by viable promastigotes/amastigotes was measured in an Odyssey (Li-Cor) infrared imaging system. Similarly, the cytotoxic effect (CC50) of aromathecins on uninfected splenic explants from BALB/c mice (cells that naturally harbor the amastigote stage) was measured by the Alamar Blue (Invitrogen) assay. The selectivity index (SI) was determined as the relationship between the CC50 value and the EC50 value for amastigotes. CC50 and EC50 were calculated by nonlinear analysis using the Sigma-Plot 10.0 statistical package. The aromathecins were dissolved in DMSO and stored at − 20 °C before their use as fresh aliquots.

L. infantum amastigotes = test: Ex vivo murine splenic explant culture with intramacrophagic iRFP L. infantum amastigotes; type: cell-based, Leishmania infantum; conditions: splenic-infecting amastigotes, ex vivo explants from infected BALB/c mice, 72 h; read-out: EC50 L. infantum amastigotes
Protocol: as §1
Primary splenocyte cultures containing intramacrophagic amastigotes were obtained from dissected spleens of female BALB/c mice infected intraperitoneally with 1.5 × 10^9 metacyclic iRFP L. infantum promastigotes, 5 weeks before their sacrifice. Mice were obtained commercially (Janvier-Labs). Animals were housed in specific-pathogen free facilities and they were euthanized by cervical dislocation without anesthesia. These protocols were approved by the Animal Care Committee of University of Leon (project license SAF2017–83575-R), which complies with European Union Legislation (2010/63/UE) and Spanish Act (RD 53/2013).
(§3) The spleens were washed with cold phosphate-buffered saline (PBS), cut in small pieces and incubated for 20 min with 5 mL of 2 mg/mL collagenase D (Sigma) prepared in buffer (10 mM HEPES, pH 7.4, 150 mM NaCl, 5 mM KCl, 1 mM MgCl2 and 1.8 mM CaCl2). After that, the cell suspension obtained was passed through a 100 μm cell strainer, harvested by centrifugation (500×g for 7 min at 4 °C), washed twice with PBS, and cultured at 37 °C under 5% CO2 atmosphere in RPMI medium (Gibco) supplemented with 10 mM HEPES, 1 mM sodium pyruvate, 1xRPMI 1640 vitamin mix, 10% (v/v) FBS, 50 U/mL penicillin and 50 μg/mL streptomycin (Calvo-Álvarez et al., 2015).
as §2

Murine Splenocytes = test: Cytotoxicity on uninfected splenic explants (Alamar Blue); type: cell-based, BALB/c mice
Protocol: as §3, §2

`C[C@@H]1[C@H](O)[C@@H](C)/C=C/C=C/C=C/C=C/C=C/C=C/C=C/[C@H](O[C@@H]2O[C@H](C)[C@@H](O)[C@H](N)[C@@H]2O)C[C@@H]2O[C@](O)(C[C@@H](O)C[C@@H](O)[C@H](O)CC[C@@H](O)C[C@@H](O)CC(=O)O[C@H]1C)C[C@H](O)[C@H]2C(=O)O` [AMB, reference compound] was tested, and the EC50 [1] was 800 ± 100 nM, the EC50 (L. infantum amastigotes) was 300 nM and the CC50 (Murine Splenocytes) was > 20000 nM.
